Structures are written as SMILES. pEC50, pIC50: −log10 of the molar value. Read-outs that look alike come from different tables or passages of the source.

For one assay, the system named is TNFα. As to the kind of experiment: IRAK4 Monocyte TNFα Cell Based Assay. Set-up: species or system human. The settings on record: Homo sapiens, Monocyte, human monocytes. The method, then:
IRAK4 Monocyte TNFα Cell Based Assay Procedure:
The cell suspension was then plated at a density of 5,000 cells/well onto black 384 well Greiner clear bottom plates. Plates were pre-spotted with test compounds and serially diluted in DMSO where 40 nL/well were delivered using the Echo 550 acoustic liquid dispenser (Labcyte®) for a final DMSO concentration of 0.1%. Plated cells were treated with compound for 1 hour at 37° C. Cells were then stimulated with 50 pg/ml of LPS (Sigma) excluding outside columns of plate used for unstimulated cell control wells. Cells were incubated for an additional 4 hours at 37° C. Cells were then spun out of the media and 5μl of sample were taken and analyzed for total TNFα content using the TR-FRET Human TNFα detection system (CisBio). This system utilizes two labeled antibodies (cryptate and XL665) that bind to two different epitopes of the TNFα molecule and produce FRET signal proportional to the concentration of TNFα in the sample. Detection antibodies are mixed 50:50 and 5 μL were dispensed into each well. Plates were covered with clear seals and incubated at room temp overnight. […] Percent of control was calculated as follows: % Control=100×(RatioSample−Ratio0% Stimulation)/(Ratio100% Stimulation−Ratio0% Stimulation) where unstimulated cells (0% stimulation) were the negative control and stimulated cells (100% stimulation) were used as the positive control.

A further assay concerns the target IRAK4 enzyme (Homo sapiens (Human), UniProt Q9NWZ3). As to the kind of experiment: IRAK4 Biochemical Assay (TR-FRET, STK1 KinEASE). The method, then: IRAK4 enzyme (Carna Biosciences, Chuo-ku, Kobe, Japan) activity was measured by detecting phosphorylated peptide substrate formation using an antibody against the phosphorylated peptide substrate. This is a time-resolved fluorescence resonance energy transfer (TR-FRET) immunoassay, based on the STK1 KinEASE Assay (Cisbio, Bedford, Mass.). The assay was designed as a simple two-step, endpoint assay (a 5 μl enzyme reaction followed by 5 μl stop and detect Solution) performed in ProxiPlate-384 Plus plates (Perkin Elmer, Waltham, Mass.). […] Compounds diluted in DMSO were spotted into 384 well plates using a Labcyte® Echo 550 Liquid Handling System prior to addition of IRAK4 enzyme and peptide substrate. Reaction solutions were delivered using a Multi-Flo (Bio-Tek Instruments). The enzyme and peptide solution was incubated with compound for 15 minutes at room temp before the reaction was initiated by the addition of ATP. The standard 5 μl reaction mixture contained 500 μM ATP, 2 μM peptide (STK1 Peptide), 0.75 nM of IRAK4 in reaction buffer (50 mM HEPES, pH 7.0, 0.02% NaN3, 0.01% BSA, 0.1 mM Orthovanadate, 5 mM MgCl2, 0.025% NP-40, 1 mM DTT). After 120 min of incubation at room temperature, 5 μl of Stop and Detect Solution (1:100 Cryptate labeled anti-phosphorylated peptide antibody solution and 125 nM Tracer in a 50 mM HEPES pH 7.0 detection buffer containing sufficient EDTA) was added. The plate was then further incubated for 60 minutes at room temperature and read on Envision 2103 Multilabeled reader (PerkinElmer) with excitation/emission/FRET emission at 340 nm/615 nm/665 nm, respectively. Fluorescence intensities at 615 nm and 665 nm emission wavelengths were expressed as a ratio (665 nm/615 nm). Percentage of inhibition was calculated as below: % Inhibition=100×(RatioSample−Ratio0% Inhibition)/(Ratio100% Inhibition−Ratio0% Inhibition)
The 0% inhibition value comes from control wells lacking inhibitor.
A general note: In TR-FRET formats the signal depends on donor and acceptor labels being close together.

Where [1] appears, read: second part of Table 2 (compounds 33-343), unit inferred, read-out: EC50MONO TNF HTRF.

Chain of IRAK4 enzyme (Q9NWZ3 whole entry): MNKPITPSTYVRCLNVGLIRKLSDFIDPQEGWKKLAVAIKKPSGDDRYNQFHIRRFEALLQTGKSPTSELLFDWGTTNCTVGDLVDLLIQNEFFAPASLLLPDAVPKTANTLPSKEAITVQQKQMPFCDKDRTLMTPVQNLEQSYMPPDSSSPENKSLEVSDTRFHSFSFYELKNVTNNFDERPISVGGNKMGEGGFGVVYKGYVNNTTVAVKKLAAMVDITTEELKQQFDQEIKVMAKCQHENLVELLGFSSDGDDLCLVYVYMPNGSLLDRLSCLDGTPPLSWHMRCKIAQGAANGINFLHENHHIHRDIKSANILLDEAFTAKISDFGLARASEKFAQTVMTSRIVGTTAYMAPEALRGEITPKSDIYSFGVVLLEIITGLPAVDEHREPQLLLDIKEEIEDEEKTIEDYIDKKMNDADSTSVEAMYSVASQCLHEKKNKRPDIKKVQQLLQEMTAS

The pIC50 is −log10 of the IC50, conventionally taken in molar units. As to `CC(C)Nc1cc(-c2ccc3cc(C#N)cnn23)ncc1-c1nnc(N2CCC[C@H]2CO)s1` [Compound 329, (S)-7-(5-(5-(2-(hydroxymethyl)pyrrolidin-1-yl)-1,3,4-thiadiazol-2-yl)-4-(isopropylamino)pyridin-2-yl)pyrrolo[1,2-b]pyridazine-3-carbonitrile], the pEC50 in the assay on TNFα (setting [1]) was 7.27. Besides, at IRAK4 enzyme, the pIC50 is 9.08.
On to `CC(=O)N[C@@H]1CCN(c2nnc(-c3cnc(-c4ccc5cc(C#N)cnn45)cc3NC(C)C)s2)C1` [Compound 330, (R)-N-(1-(5-(6-(3-cyanopyrrolo[1,2-b]pyridazin-7-yl)-4-(isopropylamino)pyridin-3-yl)-1,3,4-thiadiazol-2-yl)pyrrolidin-3-yl)acetamide], for which the pEC50 with TNFα (setting [1]) is 7.33. Besides, the pIC50 against IRAK4 enzyme was 8.74.
On to `CC(=O)N[C@H]1CCN(c2nnc(-c3cnc(-c4ccc5cc(C#N)cnn45)cc3NC(C)C)s2)C1` [Compound 331, (S)-N-(1-(5-(6-(3-cyanopyrrolo[1,2-b]pyridazin-7-yl)-4-(isopropylamino)pyridin-3-yl)-1,3,4-thiadiazol-2-yl)pyrrolidin-3-yl)acetamide], for which, in the assay with TNFα (setting [1]), the pEC50 was 7.09. Moreover, at IRAK4 enzyme, the pIC50 was 8.92.
In the same order, the values of `CC(C)Nc1cc(-c2ccc3cc(C#N)cnn23)ncc1-c1nnc(C2CCC(C#N)CC2)s1` (stereo not drawn) [Compound 333, 7-(5-(5-(4-cyanocyclohexyl)-1,3,4-thiadiazol-2-yl)-4-(isopropylamino)pyridin-2-yl)pyrrolo[1,2-b]pyridazine-3-carbonitrile] are 6.00 and 8.70.
For `CC(=O)NC12CCC(c3nnc(-c4cnc(-c5ccc6cc(C#N)cnn56)cc4NC4COC4)s3)(C1)C2` [Compound 334, N-(4-(5-(6-(3-cyanopyrrolo[1,2-b]pyridazin-7-yl)-4-(oxetan-3-ylamino)pyridin-3-yl)-1,3,4-thiadiazol-2-yl)bicyclo[2.1.1]hexan-1-yl)acetamide] the same measures were 7.00 and 8.62.
In the same order, the values of `CC(C)(O)C(=O)NC12CCC(c3nnc(-c4cnc(-c5ccc6cc(C#N)cnn56)cc4NC4COC4)s3)(C1)C2` [Compound 335, N-(4-(5-(6-(3-cyanopyrrolo[1,2-b]pyridazin-7-yl)-4-(oxetan-3-ylamino)pyridin-3-yl)-1,3,4-thiadiazol-2-yl)bicyclo[2.1.1]hexan-1-yl)-2-hydroxy-2-methylpropanamide] are 7.31 and 9.19.
Regarding `CC(C)Nc1cc(-c2ccc3cc(C#N)cnn23)ncc1-c1nnc(C2CCOCC2)s1` [Example 32, 7-(4-(isopropylamino)-5-(5-(tetrahydro-2H-pyran-4-yl)-1,3,4-thiadiazol-2-yl)pyridin-2-yl)pyrrolo[1,2-b]pyridazine-3-carbonitrile], in the assay on TNFα (LPS-stimulated, compounds 1-32, read-out: EC50 TNF), the pEC50 was 6.68. The pIC50 at IRAK4 enzyme (compounds 1-32, read-out: IC50 HTRF) is above 9.00.
On to `CC(=O)NC[C@H]1CCCN1C(=O)c1nnc(-c2cnc(-c3ccc4cc(C#N)cnn34)cc2NC(C)C)s1` [Example 42, (R)-N-((1-(5-(6-(3-cyanopyrrolo[1,2-b]pyridazin-7-yl)-4-(isopropylamino)pyridin-3-yl)-1,3,4-thiadiazole-2-carbonyl)pyrrolidin-2-yl)methyl)acetamide], for which, in the assay on TNFα (setting [1]), the pEC50 was 7.45. In addition, the negative-log IC50 (pIC50) at IRAK4 enzyme was 8.82.
In the case of `COC(=O)N[C@H]1CCN(C(=O)c2nnc(-c3cnc(-c4ccc5cc(C#N)cnn45)cc3NC(C)C)s2)C1` [Example 43, methyl (S)-(1-(5-(6-(3-cyanopyrrolo[1,2-b]pyridazin-7-yl)-4-(isopropylamino)pyridin-3-yl)-1,3,4-thiadiazole-2-carbonyl)pyrrolidin-3-yl)carbamate], the pEC50 with TNFα (setting [1]) is 7.66. This compound showed a negative-log IC50 (pIC50) against IRAK4 enzyme of 9.14.
As to `CC(C)Nc1cc(-c2ccc3cc(C#N)cnn23)ncc1-c1nnc(C(=O)N2CC[C@@H](NC(=O)C3CC3)C2)s1` [Example 47, (R)-N-(1-(5-(6-(3-cyanopyrrolo[1,2-b]pyridazin-7-yl)-4-(isopropylamino)pyridin-3-yl)-1,3,4-thiadiazole-2-carbonyl)pyrrolidin-3-yl)cyclopropanecarboxamide], in the assay on TNFα (setting [1]), the pEC50 is 5.25. Further, the pIC50 against IRAK4 enzyme was 8.85.
In the same order, the values of `CC(=O)N1CCC2(CC1)CN(c1nnc(-c3cnc(-c4ccc5cc(C#N)cnn45)cc3NC(C)C)s1)C2` [Example 67, 7-(5-(5-(7-acetyl-2,7-diazaspiro[3.5]nonan-2-yl)-1,3,4-thiadiazol-2-yl)-4-(isopropylamino)pyridin-2-yl)pyrrolo[1,2-b]pyridazine-3-carbonitrile] are 7.98 and 9.23.
In the case of `CC(=O)N[C@@H]1C[C@H]2C[C@@H]1CN2c1nnc(-c2cnc(-c3ccc4cc(C#N)cnn34)cc2NC(C)C)s1` [Example 73, N-((1R,4R,5R)-2-(5-(6-(3-cyanopyrrolo[1,2-b]pyridazin-7-yl)-4-(isopropylamino)pyridin-3-yl)-1,3,4-thiadiazol-2-yl)-2-azabicyclo[2.2.1]heptan-5-yl)acetamide], the pEC50 in the assay on TNFα (setting [1]) was 7.19. Also, the negative-log IC50 (pIC50) against IRAK4 enzyme is 9.21.
Regarding `CC(=O)N1CCC2(CC1)CN(c1nnc(-c3cnc(-c4ccc5cc(C#N)cnn45)cc3NC3COC3)s1)C2` [Example 75, 7-(5-(5-(7-acetyl-2,7-diazaspiro[3.5]nonan-2-yl)-1,3,4-thiadiazol-2-yl)-4-(oxetan-3-ylamino)pyridin-2-yl)pyrrolo[1,2-b]pyridazine-3-carbonitrile], the pEC50 in the assay on TNFα (setting [1]) was 8.49. This compound had a pIC50 against IRAK4 enzyme of 9.62.
For `CC(=O)N1CCC2(CC1)CN(c1nnc(-c3cnc(-c4ccc5cc(C#N)cnn45)cc3NC3CCOCC3)s1)C2` [Example 76, 7-(5-(5-(7-acetyl-2,7-diazaspiro[3.5]nonan-2-yl)-1,3,4-thiadiazol-2-yl)-4-((tetrahydro-2H-pyran-4-yl)amino)pyridin-2-yl)pyrrolo[1,2-b]pyridazine-3-carbonitrile], the pEC50 in the assay with TNFα (setting [1]) was 8.36. Moreover, on IRAK4 enzyme, the pIC50 is 9.07.
For `CC(=O)NC1CCC2(CC1)CN(c1nnc(-c3cnc(-c4ccc5cc(C#N)cnn45)cc3N[C@H](C)C#N)s1)C2` [Example 77, (R)-N-(2-(5-(4-((1-cyanoethyl)amino)-6-(3-cyanopyrrolo[1,2-b]pyridazin-7-yl)pyridin-3-yl)-1,3,4-thiadiazol-2-yl)-2-azaspiro[3.5]nonan-7-yl)acetamide], the pEC50 with TNFα (setting [1]) is 8.41. Besides, on IRAK4 enzyme, the pIC50 was 8.97.
For `CC(=O)NC1CCC2(CC1)CN(c1nnc(-c3cnc(-c4ccc5cc(C#N)cnn45)cc3NC3COC3)s1)C2` [Example 78, N-(2-(5-(6-(3-cyanopyrrolo[1,2-b]pyridazin-7-yl)-4-(oxetan-3-ylamino)pyridin-3-yl)-1,3,4-thiadiazol-2-yl)-2-azaspiro[3.5]nonan-7-yl)acetamide] the same measures were 8.05 and 9.07.
`CC(C)Nc1cc(-c2ccc3cc(C#N)cnn23)ncc1-c1nnc(C(C)(C)O)s1` [Example 80, 7-(5-(5-(2-hydroxypropan-2-yl)-1,3,4-thiadiazol-2-yl)-4-(isopropylamino)pyridin-2-yl)pyrrolo[1,2-b]pyridazine-3-carbonitrile]: the pEC50 with TNFα (setting [1]) was 6.94. Besides, the pIC50 against IRAK4 enzyme is 8.94.
As for `CC(C)Nc1cc(-c2ccc3cc(C#N)cnn23)ncc1-c1nnc(N2CC3(CCC(C)(O)CC3)C2)s1` [Example 82, 7-(5-(5-(7-hydroxy-7-methyl-2-azaspiro[3.5]nonan-2-yl)-1,3,4-thiadiazol-2-yl)-4-(isopropylamino)pyridin-2-yl)pyrrolo[1,2-b]pyridazine-3-carbonitrile], in the assay on TNFα (setting [1]), the pEC50 was 7.64. The pIC50 on IRAK4 enzyme is 8.93.

The values are drawn from patent US11702414B2, “Thiadiazole IRAK4 inhibitors” (Gilead Sciences, Inc., priority 2018, dated 2023).
